The values below come from US6689807B1, “HMG CoA reductase inhibitors for promoting angiogenesis” (priority 2000, dated 2004).

The subject of experiment [1] is Akt. As to the kind of experiment: Akt serine 473 phosphorylation, western immunoblot in HUVEC. Format: cell-based, human. (In western blotting, separated proteins are transferred to a membrane and probed.)
In experiment [2] the test system is tumor-induced blood-vessel formation. The settings on record: mouse model of tumor-cell induced angiogenesis; cited from earlier work.
Experiment [3] deals with HUVEC. As to the kind of experiment: Apoptosis assays in serum-free HUVEC (Annexin-V/propidium iodide, Hoechst 33342 pyknotic nuclei). It counts as cell-based, human. The settings on record: serum-free media. As to the method:
HUVEC cultures were plated on chamber slides at a density of 4×10^4 cells/well. […] Parallel cultures were infected with an adenoviral construct expressing dominant-negative Akt (dnAKT) 24 hours prior to the change to serum-free media.
Data are shown as the mean ±S.E.M. (n=4-6, *p<0.05).
Fluorescence-labeled Annexin-V-FLUOS staining of HUVEC was performed according to manufacturer's instructions (Roche Molecular Biochemicals). Briefly, cells were plated on to chamber slides (Nunc) and placed in EBM for 3 hours. […] For detection of pyknotic nuclei, cells were stained with Hoechst 33342. […] Infection with adenovirus encoding dominant-negative Aktl was initiated 24 hours prior to incubation in EBM media.

The test system of experiment [4] is VEGF. As to conditions: cultured primary endothelial cells; cited from earlier work.
For experiment [5], the system named is bovine aortic endothelial cells. Kind of experiment: NO release from endothelial cells (chemiluminescence). It counts as cell-based. The settings on record: BAEC. As to the method:
Nitric oxide release was measured in the cell supernatant by chemiluminescent detection of […] (NO2^−), the stable breakdown product of NO. […] In some samples, wortmannin was added 1 hour prior to stimulation. Cell supernatants were collected, deproteinized, and refluxed in glacial acetic acid containing sodium iodide. Processed specimens were measured with a NO analyzer (Sievers).

The test system of experiment [6] is ischemic hindlimb. Kind of experiment: Limb revascularization studies after unilateral femoral artery resection. Format: in vivo. As to conditions: rabbit, simvastatin 0.1 mg/kg daily i.p., 40 days. As to the method: Male New Zealand white rabbits weighing 3.0 to 3.5 kg were utilized to examine the effects of Akt-signaling and simvastatin-mediated stimulation of vessel growth. For the infusion model, the left femoral artery and major side branches were excised from their proximal origin to within 2 cm of the bifurcation into the saphenous and popliteal arteries. After 10 days, to permit postoperative recovery, the distal femoral artery was re-exposed and, after temporary clamping inflow veins, 50 ml of saline, saline with 3.5×10^10 viral particles of Ad-βgal, or saline with 3.5×10^10 viral particles of Ad-myrAkt was infused via the distal femoral artery and incubated for 15 minutes. […] The remainder of the animals (n=6 per experimental group) were analyzed for limb revascularization at 31 days after femoral artery resection. […] Animals in these groups (n=6 each) were analyzed for limb revascularization 40 days after surgery. Calf blood pressure was measured in both limbs by Doppler flow meter (model 1059, Parks Medical Electronics, Aloha, Oreg.). […] Collateral arteries were evaluated by internal iliac angiography. […] Nonionic contrast media (Isovue-370, Squibb Diagnostics, New Brunswick, N.J.) was injected at a rate of 1 ml/sec and serial images of the ischemic hindlimb were recorded at a rate of 1 film/sec for 10 seconds. […] Angiographic luminal diameter (d) was determined from the angiograms. […]

Experiment [7] deals with eNOS. As to the kind of experiment: Phosphorylation of endogenous eNOS in vivo (32P-orthophosphate labelled HUVEC). It counts as cell-based, human. As to conditions: simvastatin 1 μM or VEGF 100 ng/ml, 30 min. As to the method:
Alternatively, HUVEC were infected with adenovirus expressing constitutively-active Akt (myrAkt) 24 hours prior to radiolabeling and assayed for endogenous eNOS phosphorylation in the absence of Akt agonist. […] Endogenous eNOS protein was immunoprecipitated, separated by SDS-PAGE, and its phosphorylation was visualized by autoradiography. c, COS-7 cells co-transfected with eNOS (wt: wildtype eNOS, S1179A: serine 1179 mutant) and Akt (HA-Akt) expression plasmids. […] Immunoprecipitates of wild-type or mutant eNOS were examined for ^32P-phosphate incorporation by autoradiography following SDS-PAGE.
The lysate was subjected to immunoprecipitation using mouse monoclonal anti-eNOS antibody (Transduction Laboratories). Radiolabeled phosphate incorporation into each protein was visualized after SDS-PAGE (7.5%) by autoradiography.

Take `O=c1cc(N2CCOCC2)oc2c(-c3ccccc3)cccc12` [LY294002]: the “total Akt or eNOS protein levels” value in experiment [1] (HUVEC) is given as “no effect”.

Take `CC[C@H](C)C(=O)O[C@H]1C[C@@H](C)C=C2C=C[C@H](C)[C@H](CC[C@@H]3C[C@@H](O)CC(=O)O3)[C@H]21` [lovastatin]: the tumor-induced blood-vessel formation entry in experiment [2] is recorded as “no angiostatic effects”.

With `CC(O)(CCO)CC(=O)O` [mevalonate, L-mevalonate], in experiment [3], the “effect on VEGF-induced endothelial cell survival” value is “no effect”, the “effect on statin-induced endothelial cell survival” value is “blocked” and the “effect on survival in the absence of statin or VEGF stimulation” value is “no detectable effect”. Moreover, the “total Akt or eNOS protein levels” value in experiment [1] (HUVEC) was “no effect”. The “effect on simvastatin-induced Akt phosphorylation” value in experiment [1] (HUVEC pretreated 1 hour (mevalonate 200 μM, wortmannin 500 nM, LY294002 10 μM), then 1 μM simvastatin 30 minutes) was “blocked”. The “effect on VEGF-induced Akt phosphorylation” value in experiment [1] (HUVEC, mevalonate 200 μM, 100 ng/ml VEGF) is given as “no effect”.

For `CC[C@H](C)C(=O)O[C@H]1CCC=C2C=C[C@H](C)[C@H](CC[C@@H]3C[C@@H](O)CC(=O)O3)[C@H]21` [mevastatin], the “induction of VEGF expression” value in experiment [4] was “completely blocked”.

In the case of `CCC(C)(C)C(=O)O[C@H]1C[C@@H](C)C=C2C=C[C@H](C)[C@H](CC[C@@H]3C[C@@H](O)CC(=O)O3)[C@H]21` [simvastatin], in experiment [5] (simvastatin 1 hour), the NO release turned out to be 0.48±0.07 nmol NO2^−/ml. For the same compound, in experiment [6], the “capillary density in adductor muscle” value is given as 253±23 capillaries/mm^2. In addition, the Doppler flow in experiment [6] (maximal flow after papaverine) amounted to 46.6 ± 3.0 mL/min. For the same compound, the “simvastatin concentration at which maximal Akt phosphorylation occurs” value in experiment [1] (HUVEC, serine 473, within 30 minutes) is 1.0 µM.

In the case of `COC[C@H]1OC(=O)c2coc3c2[C@@]1(C)C1=C(C3=O)[C@@H]2CCC(=O)[C@@]2(C)C[C@H]1OC(C)=O` [wortmannin], the “simvastatin-stimulated NO release with wortmannin treatment” value in experiment [5] (wortmannin added 1 hour prior to simvastatin) is recorded as 0.26±0.05 nmol NO2^−/ml. In experiment [5] (wortmannin, no simvastatin), the “basal NO synthesis with wortmannin treatment” value was 0.29±0.07 nmol NO2^−/ml. In addition, in experiment [1] (HUVEC), the “total Akt or eNOS protein levels” value was “no effect”.

Turning to TNF-α, the tumor-induced blood-vessel formation result in experiment [2] is listed as “no angiostatic effects”.

On to VEGF, for which, in experiment [7], the “phosphate incorporation in endogenous eNOS” value is recorded as “increase”. For the same compound, the “Akt serine 473 phosphorylation” value in experiment [1] (HUVEC, simvastatin within 30 minutes, VEGF 100 ng/ml) is on record as “robust activation”.
